Source: article PMC11356571, “The Comparative Metabolism of a Novel Hepatocellular Carcinoma Therapeutic Agent, 2,3-Diamino-N-(4-(benzo[d]thiazol-2-yl)phenyl)propanamide, in Human and Animal Hepatocytes” (Metabolites, 2024)

Legend:
[1] = Metabolic stability in human hepatocytes; format: in vitro ADME; conditions: cryopreserved hepatocytes
Description: (§1) Cryopreserved hepatocytes were carefully thawed in a 37 °C water bath for approximately 1 min, and transferred to a tube containing pre-warmed thawing medium. The supernatants were removed and the pellets were resuspended in KHB at a final cell density of 1 × 10^6 cells/mL, based on hemocytometer counting using trypan blue exclusion. A ETN101 solution was prepared by dissolving ETN101 in water at 4 mM and diluted by KHB at the concentration of 4 μM of ETN101. Sixty microliters each of hepatocyte suspensions and 4 μM of ETN101 were added in a 96-well plate and incubated for 0, 5, 15, 30, and 45 min at 37 °C in a CO2 incubator. All incubations were conducted in triplicates. Reactions were terminated by the addition of 120 μL of ice-cold acetonitrile and followed by vortex mixing. After centrifugation at 13,000 rpm for 8 min at 4 °C, 5 μL of internal standard (IS, camptothecin in acetonitrile at 780 ng/mL) was added to 60 μL of supernatant. A 2 μL aliquot was injected into the LC-MS/MS system. The reliability of the analysis was confirmed by incorporating three different levels of quality control samples at the beginning and end of each analytical batch. The disappearance rate (k) of ETN101 was calculated by determined peak area ratio of ETN101 to IS over incubation period. Subsequently, half-life (t1/2), intrinsic clearance (Clint), and intrinsic hepatic clearance (Clint,hep) of ETN101 in human and animal hepatocytes were calculated using the following equation [34]: t1/2(min)=ln2/−k(elimination slope) ClintμL/min/10^6 cells=ln2/t1/2×μL incubation/hepatocytes (10^6 cells) Clint,hepmL/min/kg=Clint/1000×A×10^6 cells/g liver×B g liver/kg body weight […]
(§2) For the metabolic stability assay, an LC-MS/MS system was employed, consisting of an Agilent 1260 series HPLC system (Agilent Technologies Inc., Santa Clara, CA, USA) coupled to an API 4000 mass spectrometer (AB SCIEX, Concord, Vaughan, ON, Canada) equipped with a turbo electrospray interface. […] ETN101 and IS were detected using multiple reaction monitoring (MRM) mode under positive electrospray ionization (ESI). […]

[2] = Metabolic stability in dog hepatocytes; format: in vitro ADME; conditions: cryopreserved hepatocytes
Description: as §1, §2

half-life at 2 µM ([1]; 45 min incubation at 37 °C): 1.25 h
hepatocyte CLint at 2 µM ([1]; 45 min incubation at 37 °C): 18.5 µL/min/1e6 cells
CLint scaled at 2 µM ([1]; scaled from Clint): 66.1 mL/min/kg
half-life at 2 µM ([2]; 45 min incubation at 37 °C): 1.88 h
hepatocyte CLint at 2 µM ([2]; 45 min incubation at 37 °C): 12.3 µL/min/1e6 cells
CLint scaled at 2 µM ([2]; scaled from Clint): 84.6 mL/min/kg
Structure (SMILES): NCC(N)C(=O)Nc1ccc(-c2nc3ccccc3s2)cc1 (stereo not drawn) [ETN101, 2,3-diamino-N-(4-(benzo[d]thiazol-2-yl)phenyl)propanamide]
